Data: patent US6080731A, “Dinucleoside-5', 5'-pyrophosphates administered to treat HIV” (Biosearch Italia, S.p.A., priority 1994, dated 2000)

Columns and labels:
[1] = 50% cytotoxic concentration in MT-4 cells; format: cell-based; settings: human
Source text: (§1) To confirm the anti-HIV activity of some dinucleoside-5',5'-P^1,P^2-pyrophosphates representative of this invention, invitro tests have been carried out on a HTLV-1 transformed cell line, MT-4, which is highly susceptible to and permissive for HIV infection. The inhibition of the HIV-induced cytopathic effect was used as the end point. The procedure of this test is essentially that described by R. Pauwels et al. "Rapid and automated tetrazolium-based calorimetric assay for the detection of anti-HIV compounds". Journal of Virological Methods, 20, (1988), 309-321.
(§2) Thymine-3'-azido-2',3'-dideoxy-D-riboside (AZT) was taken as control compound.

HIV = experiment: Anti-HIV in vitro activity: inhibition of the HIV-induced cytopathic effect in MT-4 cells; format: cell-based; settings: Human immunodeficiency virus 1, MT4, read-out: 50% effective concentration (IC50)
Source text: as §1, §2

[2] = Concentration of di-AZT-5',5'-P^1,P^2 -pyrophosphate and its metabolites in human plasma incubated with loaded erythrocytes; format: in vitro ADME; settings: 37° C., autologous plasma, 10% hematocrit, released from loaded erythrocytes
Experimental: (§3) A two step procedure was used consisting of a first dialysis of the washed and packed erythrocytes (80% hematocrit) against 70 volumes of hemolysing buffer (5 mM Na2 HPO4 supplemented with 4 mM MgCl2, pH 7.2, 26 mOsm) for 35 minutes at 4° C. under gentle rotation. This step was followed by addition of 10-15 mM di-AZT-5',5'-P^1,P^2 -pyrcphosphate inside the dialysis bag and further dialysis for 15 minutes under the same conditions. Erythrocytes were then resealed by dialysing them for 40 minutes at 4° C. against phosphate-saline buffer, pH 7.4, supplemented with 10 mM glucose and adenosine, 310 mOsm. The loaded erythrocytes were then extensively washed with ice-cold aqueous NaCl (0.9% w/w) and incubated at 37° C. in autologous plasma at 10% hematocrit.
(§4) The concentration of the dinucleoside pyrophosphate and its metabolites in the plasma and red blood cells was determined at successive time intervals by using the following method.
At various times, 1 ml aliquots of the incubation mixture were withdrawn. After the separation of the erythrocytes from plasma, the two fractions were separately extracted. […]
(§5) 150 Microliters of the plasma fractions were treated with 50 microliters of 3.7 M PCA and 120 microliters of the supernatant were neutralized with 27 microliters of 3 M potassium carbonate and centrifuged. […] The solvent program was a linear gradient starting at 100% of buffer A (0.1 M KH2 PO4 with 5 mM tert-butylammonium hydroxide (TBA), pH 4.9) and increasing up to 100% buffer B (0.1 M KH2 PO4 with 5 mM TBA, in 40% (v/v) methanol in water, pH 4.9) in 30 minutes; 100% buffer B was maintained up to 50 minutes. The flow rate was 0.4 ml/min and the eluted compounds were monitored with a spectrophotometric detector set at 265 nm.

[3] = Concentration of di-AZT-5',5'-P^1,P^2 -pyrophosphate and its metabolites in loaded human red blood cells; format: in vitro ADME; settings: 37° C., autologous plasma; for Concentration into human red blood cells: 10% hematocrit, erythrocytes loaded with di-AZT-pyrophosphate
Experimental: as §3, §4
At various times, 1 ml aliquots of the incubation mixture were withdrawn. After the separation of the erythrocytes from plasma, the two fractions were separately extracted.
100 Microliters of packed red blood cells (RBC) were added to 100 microliters of water, then 68 microliters of 3.7 M perchloric acid (PCA) were added under vigorous shaking. The sample was centrifuged and 140 microliters of the supernatant were neutralized with 30 microliters of 3 M potassium carbonate. The sample was then centrifuged to remove the formed precipitate.
as §5

[4] = De-phosphorylation rate of encapsulated pro-drug; format: in vitro ADME; settings: pro-drug for encapsulation into erythrocytes

SMILES | CC50 [1] [nM] | IC50 (HIV) [nM] | Concentration in human plasma ([2]; 0 h) [µM] | Concentration in human plasma ([2]; 2 h) [µM] | Concentration in human plasma ([2]; 6 h) [µM] | Concentration in human plasma ([2]; 24 h) [µM] | Concentration into human red blood cells ([3]; 0 h) [µM] | Concentration into human red blood cells ([3]; 2 h) [µM] | Concentration into human red blood cells ([3]; 6 h) [µM] | Concentration into human red blood cells ([3]; 24 h) [µM] | Release from the erythrocytes ([3]; human red blood cells) | De-phosphorylation rate with respect to the respective monophosphate [4]
Cc1cn([C@H]2C[C@H](N=[N+]=[N-])[C@@H](COP(=O)(O)OP(=O)(O)OC[C@H]3O[C@@H](n4cc(C)c(=O)[nH]c4=O)C[C@@H]3N=[N+]=[N-])O2)c(=O)[nH]c1=O [Compound 1, di-(thymine-3'-azido-2',3'-dideoxy-D-riboside)-5',5'-P^1,P^2-pyrophosphate] | > 100000 | 31 | 4.49 | 3.75 | 5.27 | 5.34 | 3900 | 4100 | 2900 | 1800 | released from the erythrocytes at a very low rate | 
O=c1[nH]c(=O)n([C@H]2C[C@H](O)[C@@H](COP(=O)(O)OP(=O)(O)OC[C@H]3O[C@@H](n4cc(F)c(=O)[nH]c4=O)C[C@@H]3O)O2)cc1F [Example 6, di-(5-fluorouracil-2'-deoxy-D-riboside)-5',5'-P^1,P^2-pyrophosphate] |  |  |  |  |  |  |  |  |  |  |  | lower de-phosphorylation rate with respect to the respective monophosphate
Cc1cn([C@H]2C[C@H](N=[N+]=[N-])[C@@H](CO)O2)c(=O)[nH]c1=O [AZT, thymine-3'-azido-2',3'-dideoxy-D-riboside, reference compound] | 70000 | 28 | 4.6 | 14.42 | 62.43 | 355.78 |  |  | 600 | 100 |  | 
Cc1cn([C@H]2C[C@H](N=[N+]=[N-])[C@@H](COP(=O)(O)O)O2)c(=O)[nH]c1=O [AZT-monophosphate, thymine-3'-azido-2',3'-dideoxy-D-riboside-5'-monophosphate] |  |  | 21.94 | 28.21 | 24.68 | 67.11 | 40 | 90 | 650 | 930 |  | 
